Source: PMC8706879 (Pharmaceuticals, 2021)
Read-outs that look alike come from different tables or passages of the source. Where a SMILES comes first, the peptide text is derived from it. Bridges are numbered along the chain shown (N, C = ends). [ ]: non-standard residue; d: D form. The star is where a group is joined. DOTA = O=C(O)CN1CCN(CC(=O)O)CCN(CC(=O)*)CCN(CC(=O)O)CC1; dPhe(4-NHCONH2) = NC(=O)Nc1ccc(C[C@@H](N)C(=O)O)cc1; Dihydroorotyl(S) = O=C1C[C@@H](C(=O)*)NC(=O)N1; Phe(4-Cl) = N[C@@H](Cc1ccc(Cl)cc1)C(=O)O; Phe(4-NH2) = Nc1ccc(C[C@H](N)C(=O)O)cc1

Columns and labels:
human SST2 [1] = target: T1, human SST2 (Homo sapiens, UniProt P30874); test: biochemical
T1 sequence (P30874 whole entry): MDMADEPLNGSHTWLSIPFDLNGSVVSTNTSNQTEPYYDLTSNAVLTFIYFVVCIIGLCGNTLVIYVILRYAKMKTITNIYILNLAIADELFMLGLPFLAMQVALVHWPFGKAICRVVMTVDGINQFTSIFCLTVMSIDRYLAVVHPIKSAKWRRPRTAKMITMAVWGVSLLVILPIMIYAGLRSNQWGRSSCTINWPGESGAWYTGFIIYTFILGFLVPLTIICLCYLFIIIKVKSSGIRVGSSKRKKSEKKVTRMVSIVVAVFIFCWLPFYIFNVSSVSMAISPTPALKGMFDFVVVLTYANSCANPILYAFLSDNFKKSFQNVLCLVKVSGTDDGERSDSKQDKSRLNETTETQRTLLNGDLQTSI
Method: (§1) To prepare cell membranes, HEK-SST2 cells were grown to confluence, mechanically disaggregated, washed with PBS (pH 7.4) and re-suspended in 20 mM of homogenisation Tris buffer (pH 7.5) containing 1.3 mM EDTA, 0.25 M sucrose, 0.7 mM bacitracin, 5 µM soybean trypsin inhibitor and 0.7 mM PMSF. The cells were homogenised using Ultra-Turrax, and the homogenised suspension was centrifuged at 500× g for 10 min at 4 °C. The supernatant was collected in centrifuge tubes (Beckman Coulter Inc., Brea, CA, USA). This procedure was then repeated 5 times. The collected supernatant was centrifuged in an ultra-centrifuge (Beckman) at 4 °C for 55 min at 20,000 rpm (approximately 49,000× g). Then, the pellet was re-suspended in 10 mM ice-cold HEPES buffer (pH 7.5), aliquoted, and stored at −80 °C. The protein concentration of those membrane suspensions was determined by the Bradford method, BSA as the standard.
(§2) In all assays, non-specific binding of [^177Lu]Lu-OPS201 was determined using 1000-fold excess of the unlabelled SST2 antagonist OPS202, also known as NODAGA-JR11, (where NODAGA is 1,4,7-triazacyclononane,1-glutaric acid-4,7-acetic acid). […] All reported values refer to specific binding (total minus non-specific binding). The radioactivity of all samples was measured in a gamma-counter (COBRA 5003, Packard Instruments). For all binding experiments with membranes, bound radioligand was separated from the one remaining in solution by rapid vacuum filtration, using an M-48 Brandel Cell Harvester (Alpha Biotech Ltd., Glasgow, UK). The filters were dried before being measured in the gamma-counter.
The dissociation of those radioligands was initiated by adding a 1000-fold excess of either unlabelled Lu-OPS201, Lu-DOTA-TATE, DOTA-BASS or lanreotide and monitored for up to 3 h. To monitor the stability of the radioligand–receptor complex during this extended time period, the membranes were incubated with radioligand for up to 4 h.

HEK-SST2 cells [2] = test: Externalisation of [^177Lu]Lu-DOTA-TATE by intact cells; assay type: cell-based, human
Method: (§3) In vitro assays on intact cells were performed with HEK-SST2 cells seeded in 6-well plates. The plates were pre-treated with a solution of 10% poly-lysine to promote cell attachment. HEK-SST2 cells (about 1 × 10^6 cells) were incubated in 1% (v/v) FBS containing medium at 37 °C/5% CO2 overnight. The day after, the cells were washed with medium, followed by incubation with the adjusted medium volume for 1 h prior starting the experiment. […] The cells were afterwards incubated at 37 °C under the same three different conditions as above. […] At the end, the cells were treated with NaOH and collected for measurement. All reported values were also normalised as described above. In both aforementioned experiments, the 37 °C washout medium was repeatedly refreshed in an attempt to limit any re-equilibration between free and cell-associated radioligand and to reduce the accumulation (and thus the rebinding) of radioligand molecules when they were already dispersed in the bulk of the naïve medium. All data were fitted according to the one-phase exponential decay equation (GraphPad Software Inc., Prism 7).

HEK-SST2 cells [3] = test: Radioligand binding to and internalisation by intact HEK-SST2 cells; assay type: cell-based, human; settings: for cell surface bound fraction of total added radioligand / internalised fraction of total added radioligand: 4 h incubation at 37 °C, 2.5 nM
Method: The HEK-293 cell line expressing the T7-epitope tagged human SST2 (HEK-SST2) was provided by Prof. Stefan Schulz (Institute of Pharmacology and Toxicology, Jena University Hospital, Jena, Germany). HEK-SST2 cells were cultured at 37 °C and 5% CO2 in DMEM containing 10% FBS, 100 U/mL penicillin, 100 µg/mL streptomycin, […] L-glutamine, and 500 µg/mL geneticin (G-418).
(§4) In vitro assays on intact cells were performed with HEK-SST2 cells seeded in 6-well plates. The plates were pre-treated with a solution of 10% poly-lysine to promote cell attachment. HEK-SST2 cells (about 1 × 10^6 cells) were incubated in 1% (v/v) FBS containing medium at 37 °C/5% CO2 overnight. The day after, the cells were washed with medium, followed by incubation with the adjusted medium volume for 1 h prior starting the experiment.
as §2
After 0.5, 1, 2 and 4 h (one plate per time point), the medium was removed, and the plated cells were quickly washed twice with ice-cold PBS. The cells were then treated twice for 5 min with ice-cold glycine solution (0.05 M, pH 2.8) to detach the cell surface-bound radioligand (acid releasable). Afterwards, the cells containing the internalised radioligand were detached with 1 M NaOH at 37 °C and collected for measurement. The amount of specific cell surface-bound and internalised radioligand is expressed as a percentage of the total applied activity after subtracting the non-specific values.

HEK-SST2 cells [4] = test: Sub-cellular redistribution of cell surface-bound radioligand at 37 °C; assay type: cell-based, human; design: reduction of initial surface-bound fraction: concentration or dose not given beside the values
Method: as §4, §2
The cell surface-bound internalisation and dissociation rates of [^177Lu]Lu-OPS201 were studied in HEK-SST2 cells seeded in 6-well plates (10^6 cells/well), which were first placed on ice for 30 min. The experiment was started by adding 2.5 nM [^177Lu]Lu-OPS201 to the medium, and the incubation was carried out at 4 °C for 2 h to prevent internalisation of the radioligand. Afterwards, the cells were washed with ice-cold PBS, and 1 mL/well of fresh pre-warmed (37 °C) medium was added. One plate was immediately treated with ice-cold glycine solution, and then the cells were detached with NaOH to determine the initial surface-bound and internalised fraction. The other plates were incubated at 37 °C for 10, 20, 30, 60, 120 or 240 min (one plate per time point) before the same treatment. At the specified time points, the amount of radioactivity, presented as cell surface-bound, internalised and in medium redistributed radioligand, was expressed in percentage of the cell-associated fraction (surface bound and internalised uptake) at the onset of the redistribution step as control. All reported values have been corrected for non-specific uptake.

human SST2 [5] = target: T1, human SST2; test: Saturation binding on HEK-SST2 cell membranes
Method: as §1, §2
The incubation was initiated by adding 30 μL of radioligand solution at 10 times the final concentration and 100 μL of cell membrane suspension to yield 10 μg of protein per well.

HEK-SST2 cells [6] = test: Dissociation/release of cell-associated [^177Lu]Lu-OPS201 by intact cells; assay type: cell-based, human; settings: after 4 h at 37 °C
Method: as §3, with “then” for “afterwards”, “under three different conditions: […] At preselected time points, the medium was removed for quantification and replaced by fresh pre-warmed (37 °C) medium (either alone or with” for “under”, “unlabelled competitor).” for “three different conditions as above.”, “All” for “All reported”

[7] = after 2 h pre-incubation at 4 °C
[8] = after 4 h of incubation at 37 °C

## H-D2Nal-c(Cys-Tyr-DTrp-Lys-Val-Cys)-Thr-NH2 [lanreotide, reference compound]
Human SST2 [1]; high concentration (1000-fold excess) of competitor, HEK-SST2 membranes
  displacement of specifically bound [^177Lu]Lu-OPS201 by the unlabelled agonist: no more than 30%

## C[C@@H](O)[C@H](NC(=O)[C@@H]1CSSC[C@H](NC(=O)[C@@H](Cc2ccccc2)NC(=O)CN2CCN(CC(=O)O)CCN(CC(=O)O)CCN(CC(=O)O)CC2)C(=O)N[C@@H](Cc2ccc(O)cc2)C(=O)N[C@H](Cc2c[nH]c3ccccc23)C(=O)N[C@@H](CCCCN)C(=O)N[C@@H]([C@@H](C)O)C(=O)N1)C(=O)O [[^177Lu]Lu-DOTA-TATE, ^177Lu-oxodotreotide, metal not drawn]
HEK-SST2 cells [2]; after 4 h in naïve medium, 37 °C
  decrease of internalised radioligand during washout: only partial
HEK-SST2 cells [2]; after 4 h in the presence of an excess of Lu-DOTA-TATE and Lu-OPS201, 37 °C
  decrease of internalised radioligand during washout: nearly complete
HEK-SST2 cells [3]; 30 min of incubation at 37 °C
  internalised fraction: more than 50%
HEK-SST2 cells [3]
  cell surface bound fraction of total added radioligand: 2 ± 1%
  internalised fraction of total added radioligand: 77 ± 3%
HEK-SST2 cells [4]; 4 °C
  cell surface binding at 4 °C: very low cell surface binding

## C[C@@H](O)[C@@H]1NC(=O)[C@H](CCCCN)NC(=O)[C@@H](Cc2ccc(NC(N)=O)cc2)NC(=O)[C@H](Cc2ccc(NC(=O)[C@@H]3CC(=O)NC(=O)N3)cc2)NC(=O)[C@H](NC(=O)[C@H](Cc2ccc(Cl)cc2)NC(=O)CN2CCN(CC(=O)O)CCN(CC(=O)O)CCN(CC(=O)O)CC2)CSSC[C@@H](C(=O)N[C@H](Cc2ccc(O)cc2)C(N)=O)NC1=O [[^177Lu]Lu-OPS201, ^177Lu-satoreotide tetraxetan, metal not drawn] ({DOTA}-[Phe(4-Cl)][dC][Phe(4-NH2)](Dihydroorotyl(S))[dPhe(4-NHCONH2)]KTC[dY]-NH2; disulfide 2-7)
Human SST2 [5]; HEK-SST2 cell membranes 10 µg/well, 37 °C, single-site model
  Bmax: 0.37 ± 0.02 nM
Human SST2 [5]; HEK-SST2 cell membranes, 37 °C, single-site model
  Kd: 150 ± 3 pM
Human SST2 [5]; saturation binding, HEK-SST2 cell membranes
  number of binding sites recognised relative to [^177Lu]Lu-DOTA-TATE: about four times more sites
HEK-SST2 cells [3]
  cell surface bound fraction of total added radioligand: 46 ± 2%
  internalised fraction of total added radioligand: 31 ± 1%
HEK-SST2 cells [6]; repeatedly refreshed naïve medium
  radioligand released: 40%
HEK-SST2 cells [6]; washout medium with excess of unlabelled Lu-OPS201 or Lu-DOTA-TATE
  radioligand released: 70%
HEK-SST2 cells [4]; [7]
  internalised fraction of added radioligand: 7%
  surface-bound fraction of added radioligand: 54%
HEK-SST2 cells [4]; after 4 h at 37 °C, undisturbed medium
  fraction released in the medium: < 5%
HEK-SST2 cells [4]; [8]
  internalised fraction (of cell-associated activity): 24%
  reduction of initial surface-bound fraction: 17%
  surface-bound fraction (of cell-associated activity): 71%
HEK-SST2 cells [4]; t = 0 of 37 °C incubation
  internalised fraction (of cell-associated activity): 12%
  surface-bound fraction (of cell-associated activity): 88%
Human SST2 [1]
  dissociation t1/2: 41 min
Human SST2 [1]; HEK-SST2 membranes, competitor DOTA-BASS
  koff: 0.0003 s⁻¹
Human SST2 [1]; HEK-SST2 membranes, competitor Lu-OPS201
  koff: 0.000283 s⁻¹
Human SST2 [1]; competitor: excess DOTA-BASS
  dissociation t1/2: 38 min
